Marks after values point to notes of the source that are not given here.
Assay: Plasma pharmacokinetics of copanlisib
Type: in vivo, human
[1] = cycle 1 day 1, NHL expansion, 0.8 mg/kg, n=9, value (range)
[2] = cycle 1 day 1, diabetic expansion, 0.4 mg/kg, n=6, value (range)
[3] = cycle 1 day 1, solid tumors expansion, 0.8 mg/kg, n=25, value (range)
[4] = human, plasma, intravenous, 0.8 mg/kg

In the case of `COc1c(OCCCN2CCOCC2)ccc2c1N=C(NC(=O)c1cnc(N)nc1)N1CCN=C21` [copanlisib, Copanlisib], the “coefficients of variation of Cmax and AUC(0–25)” value (0.1 to 1.2 mg/kg) is reported as 30–50%, the “inter-patient variability of AUC” value (MTD 0.8 mg/kg) is reported as 47% and the terminal half-life (MTD 0.8 mg/kg, coefficient of variation 43%) is reported as ~38 h. For the same compound, the “Cmax levels of unbound copanlisib” value (at the MTD) was ~150 nM, the “dose dependence of Cmax and AUC(0–25)” value (between 0.1 and 1.2 mg/kg) was “dose-proportionally” and the tlast (cycle 1 day 1, MTD 0.8 mg/kg combined, n=7, value (range)) was 142.5 (25.0–194.2)^e h. For the same compound, the Tmax (cycle 1 day 1, MTD 0.8 mg/kg combined, n=34, value (range)) was 1.0 (0.5–3.0)^d h, the Tmax [1] was 1.0 (0.5–1.0) h and the tlast [1] was 167.0 (47.3–191.9) h. For the same compound, the tlast (cycle 1 day 1, cohort 1, 0.1 mg/kg, n=1, individual data) was 48.6 h, the tlast (cycle 1 day 1, cohort 2, 0.2 mg/kg, n=3, value (range)) was 48.4 (25.0–49.0) h and the tlast (cycle 1 day 1, cohort 3, 0.4 mg/kg, n=2, range) was 167.8 to 170.2 h. For the same compound, the tlast (cycle 1 day 1, cohort 4, 0.8 mg/kg, n=7, value (range)) was 142.5 (25.0–192.0) h, the tlast (cycle 1 day 1, cohort 5, 1.2 mg/kg, n=2, range) was 29.3–167.2^b,c h and the Tmax [2] was 1.0 (1.0–1.2) h. For the same compound, the tlast [2] was 49.0 (48.9–167.4) h, the Tmax [3] was 1.0 (0.5–3.0) h and the tlast [3] was 118.5 (46.4–194.2) h. For the same compound, the Tmax (cycle 1 day 15, MTD 0.8 mg/kg combined, n=36, value (range)) was 1.0 (0.5–1.3)^m h, the Tmax (cycle 1 day 15, solid tumors expansion, 0.8 mg/kg, n=22, value (range)) was 1.0 (0.5–1.3)^l h and the “accumulation after once-weekly administration” value (days 1 and 15) was “no accumulation”. It also gave a concentration at 1 week (human, blood, intravenous, 0.8 mg/kg) of 1.6 nM, an AUC(0-t) (human, plasma, intravenous, 0.1 mg/kg, AUC(0–25), cycle 1 day 1, cohort 1, 0.1 mg/kg, n=1, individual data) of 170 ng·h/mL and an AUC(0-t) (human, plasma, intravenous, 0.1 mg/kg, AUC(0–25), cycle 1 day 15, cohort 1, 0.1 mg/kg, n=1, individual data) of 175 ng·h/mL. For the same compound, the AUC(0-t) (human, plasma, intravenous, 0.1 mg/kg, AUC(0–tlast), cycle 1 day 1, cohort 1, 0.1 mg/kg, n=1, individual data) was 254 ng·h/mL, the Cmax (human, plasma, intravenous, 0.1 mg/kg, cycle 1 day 1, cohort 1, 0.1 mg/kg, n=1, individual data) was 32.9 ng/mL and the Cmax (human, plasma, intravenous, 0.1 mg/kg, cycle 1 day 15, cohort 1, 0.1 mg/kg, n=1, individual data) was 37.6 ng/mL. It also gave a Tmax (human, plasma, intravenous, 0.1 mg/kg, tmax, cycle 1 day 1, cohort 1, 0.1 mg/kg, n=1, individual data) of 0.5 h, a Tmax (human, plasma, intravenous, 0.2 mg/kg) of 1 h and an AUC(0-t) (human, plasma, intravenous, 0.2 mg/kg, AUC(0–25), cycle 1 day 1, cohort 2, 0.2 mg/kg, n=3, geometric mean (%CV)) of 384 ng·h/mL. For the same compound, the AUC(0-t) (human, plasma, intravenous, 0.2 mg/kg, AUC(0–25), cycle 1 day 15, cohort 2, 0.2 mg/kg, n=3, geometric mean (%CV)) was 453 ng·h/mL, the AUC(0-t) (human, plasma, intravenous, 0.2 mg/kg, AUC(0–tlast), cycle 1 day 1, cohort 2, 0.2 mg/kg, n=3, geometric mean (%CV)) was 472 ng·h/mL and the Cmax (human, plasma, intravenous, 0.2 mg/kg, cycle 1 day 1, cohort 2, 0.2 mg/kg, n=3, geometric mean (%CV)) was 79.8 ng/mL. It also gave a Cmax (human, plasma, intravenous, 0.2 mg/kg, cycle 1 day 15, cohort 2, 0.2 mg/kg, n=3, geometric mean (%CV)) of 89.4 ng/mL, a Tmax (human, plasma, intravenous, 0.2 mg/kg, tmax, cycle 1 day 1, cohort 2, 0.2 mg/kg, n=3, value (range)) of 1.1 h and a Tmax (human, plasma, intravenous, 0.4 mg/kg) of 1 h. It also gave an AUC(0-t) (human, plasma, intravenous, 0.4 mg/kg, AUC(0–25), cycle 1 day 1, cohort 3, 0.4 mg/kg, n=2, range) of 348 to 556 ng·h/mL, an AUC(0-t) (human, plasma, intravenous, 0.4 mg/kg, AUC(0–25), cycle 1 day 1, diabetic expansion, 0.4 mg/kg, n=6, geometric mean (%CV)) of 607 ng·h/mL and an AUC(0-t) (human, plasma, intravenous, 0.4 mg/kg, AUC(0–25), cycle 1 day 15, cohort 3, 0.4 mg/kg, n=2, range) of 324 to 803 ng·h/mL. The AUC(0-t) (human, plasma, intravenous, 0.4 mg/kg, AUC(0–25), cycle 1 day 15, diabetic expansion, 0.4 mg/kg, n=6, geometric mean (%CV)) was 687 ng·h/mL, the AUC(0-t) (human, plasma, intravenous, 0.4 mg/kg, AUC(0–tlast), cycle 1 day 1, cohort 3, 0.4 mg/kg, n=2, range) was 722 to 1450 ng·h/mL and the AUC(0-t) (human, plasma, intravenous, 0.4 mg/kg, AUC(0–tlast), cycle 1 day 1, diabetic expansion, 0.4 mg/kg, n=6, geometric mean (%CV)) was 1070 ng·h/mL. The Cmax (human, plasma, intravenous, 0.4 mg/kg, cycle 1 day 1, cohort 3, 0.4 mg/kg, n=2, range) was 143 to 144 ng/mL, the Cmax (human, plasma, intravenous, 0.4 mg/kg, cycle 1 day 1, diabetic expansion, 0.4 mg/kg, n=6, geometric mean (%CV)) was 138 ng/mL and the Cmax (human, plasma, intravenous, 0.4 mg/kg, cycle 1 day 15, cohort 3, 0.4 mg/kg, n=2, range) was 70.1 to 193 ng/mL. The Cmax (human, plasma, intravenous, 0.4 mg/kg, cycle 1 day 15, diabetic expansion, 0.4 mg/kg, n=6, geometric mean (%CV)) was 151 ng/mL, the half-life (human, plasma, intravenous, 0.4 mg/kg, t1/2, cycle 1 day 1, cohort 3, 0.4 mg/kg, n=1) was 60.6 h and the half-life (human, plasma, intravenous, 0.4 mg/kg, t1/2, cycle 1 day 1, diabetic expansion, 0.4 mg/kg, n=2, value (%)) was 34.4 h. The Tmax (human, plasma, intravenous, 0.4 mg/kg, tmax, cycle 1 day 1, cohort 3, 0.4 mg/kg, n=2, range) was 0.5 to 1.1 h, the Tmax (human, plasma, intravenous, 0.4 mg/kg, tmax, cycle 1 day 15, cohort 3, 0.4 mg/kg, n=2, range) was 0.5 to 1.1 h and the Tmax [4] was 1 h. It also gave a concentration at 8 day of cycle 1 [4] of 4.92 ng/mL, an AUC(0-t) (human, plasma, intravenous, 0.8 mg/kg, AUC(0–25), cycle 1 day 1, MTD 0.8 mg/kg combined, n=41, geometric mean (%CV)) of 1590 ng·h/mL and an AUC(0-t) (human, plasma, intravenous, 0.8 mg/kg, AUC(0–25), cycle 1 day 1, NHL expansion, 0.8 mg/kg, n=9, geometric mean (%CV)) of 1350 ng·h/mL. The AUC(0-t) (human, plasma, intravenous, 0.8 mg/kg, AUC(0–25), cycle 1 day 1, cohort 4, 0.8 mg/kg, n=7, geometric mean (%CV)) was 1600 ng·h/mL, the AUC(0-t) (human, plasma, intravenous, 0.8 mg/kg, AUC(0–25), cycle 1 day 15, MTD 0.8 mg/kg combined, n=35, geometric mean (%CV)) was 1570 ng·h/mL and the AUC(0-t) (human, plasma, intravenous, 0.8 mg/kg, AUC(0–25), cycle 1 day 15, NHL expansion, 0.8 mg/kg, n=8, geometric mean (%CV)) was 1760 ng·h/mL. It also gave an AUC(0-t) (human, plasma, intravenous, 0.8 mg/kg, AUC(0–25), cycle 1 day 15, cohort 4, 0.8 mg/kg, n=6, geometric mean (%CV)) of 1480 ng·h/mL, an AUC(0-t) (human, plasma, intravenous, 0.8 mg/kg, AUC(0–tlast), cycle 1 day 1, MTD 0.8 mg/kg combined, n=41, geometric mean (%CV)) of 2880 ng·h/mL and an AUC(0-t) (human, plasma, intravenous, 0.8 mg/kg, AUC(0–tlast), cycle 1 day 1, NHL expansion, 0.8 mg/kg, n=9, geometric mean (%CV)) of 2710 ng·h/mL. For the same compound, the AUC(0-t) (human, plasma, intravenous, 0.8 mg/kg, AUC(0–tlast), cycle 1 day 1, cohort 4, 0.8 mg/kg, n=7, geometric mean (%CV)) was 2940 ng·h/mL, the Cmax (human, plasma, intravenous, 0.8 mg/kg, cycle 1 day 1, MTD 0.8 mg/kg combined, n=41, geometric mean (%CV)) was 454 ng/mL and the Cmax (human, plasma, intravenous, 0.8 mg/kg, cycle 1 day 1, cohort 4, 0.8 mg/kg, n=7, geometric mean (%CV)) was 293 ng/mL. It also gave a Cmax (human, plasma, intravenous, 0.8 mg/kg, cycle 1 day 15, MTD 0.8 mg/kg combined, n=36, geometric mean (%CV)) of 463 ng/mL, a Cmax (human, plasma, intravenous, 0.8 mg/kg, cycle 1 day 15, NHL expansion, 0.8 mg/kg, n=8, geometric mean (%CV)) of 507 ng/mL and a Cmax (human, plasma, intravenous, 0.8 mg/kg, cycle 1 day 15, cohort 4, 0.8 mg/kg, n=6, geometric mean (%CV)) of 370 ng/mL. For the same compound, the half-life (human, plasma, intravenous, 0.8 mg/kg, t1/2, cycle 1 day 1, MTD 0.8 mg/kg combined, n=28, value (%)) was 38.2 h, the half-life (human, plasma, intravenous, 0.8 mg/kg, t1/2, cycle 1 day 1, NHL expansion, 0.8 mg/kg, n=8, value (%)) was 38.9 h and the half-life (human, plasma, intravenous, 0.8 mg/kg, t1/2, cycle 1 day 1, cohort 4, 0.8 mg/kg, n=4, value (%)) was 42.3 h. The half-life (human, plasma, intravenous, 0.8 mg/kg, t1/2, cycle 1 day 1, solid tumors expansion, 0.8 mg/kg, n=16, value (%)) was 36.9 h, the half-life (human, plasma, intravenous, 0.8 mg/kg, terminal half-life, MTD 0.8 mg/kg, coefficient of variation 43%) was 38.2 h and the Tmax (human, plasma, intravenous, 0.8 mg/kg, tmax, cycle 1 day 1, cohort 4, 0.8 mg/kg, n=7, value (range)) was 1.1 h. The Tmax (human, plasma, intravenous, 0.8 mg/kg, tmax, cycle 1 day 15, NHL expansion, 0.8 mg/kg, n=8, value (range)) was 0.8 h, the AUC(0-t) (human, plasma, intravenous, 1.2 mg/kg, AUC(0–25), cycle 1 day 1, cohort 5, 1.2 mg/kg, n=2, range) was 2510 to 3820 ng·h/mL and the AUC(0-t) (human, plasma, intravenous, 1.2 mg/kg, AUC(0–tlast), cycle 1 day 1, cohort 5, 1.2 mg/kg, n=2, range) was 4090 to 5230 ng·h/mL. The Cmax (human, plasma, intravenous, 1.2 mg/kg, cycle 1 day 1, cohort 5, 1.2 mg/kg, n=2, range) was 616 to 739 ng/mL, the half-life (human, plasma, intravenous, 1.2 mg/kg, t1/2, cycle 1 day 1, cohort 5, 1.2 mg/kg, n=1) was 33 h and the Tmax (human, plasma, intravenous, 1.2 mg/kg, tmax, cycle 1 day 1, cohort 5, 1.2 mg/kg, n=2, range) was 0.6 to 1.3 h.
